Source: patent US7750150B2, “Process for producing acid adduct salt of polyacidic base compound” (Kowa Co., Ltd., priority 2003, dated 2010)
Where two headings read alike, the source gives them in different places.

Experiments:
Oral absorption = format: in vivo; details: statement in words, background art
[1] = Solubility of the acid addition salts; details: for water solubility: statement in words, background art
pH of aqueous solution = format: physicochemical
[2] = Powder X-ray diffraction (degree of crystallinity); format: physicochemical
Text: (§1) A powder X-ray diffraction pattern of 2-[4-[2-(benzimidazol-2-ylthio)ethyl]piperazin-1-yl]-N-[2,4-bis(methylthio)-6-methyl-3-pyridyl]acetamide monohydrochloride 0.9-water adduct is illustrated in FIG. 1, and the results of its TG (thermogravimetric analysis)-DSC (differential scanning calorimetry) measurements are shown in FIG. 2. Further, a powder X-ray diffraction pattern of 2-[4-[2-(benzimidazol-2-ylthio)ethyl]piperazin-1-yl]-N-[2,4-bis(methylthio)-6-methyl-3-pyridyl]acetamide tetrahydrochloride 2-water adduct is illustrated in FIG. 3, and the results of its TG-DSC measurements are shown in FIG. 4. A powder X-ray diffraction pattern of 2-[4-[2-(benzimidazol-2-ylthio)ethyl]piperazin-1-yl]-N-[2,4-bis(methylthio)-6-methyl-3-pyridyl]acetamide disulfate 1.5-water adduct is illustrated in FIG. 5, and the results of its TG-DSC measurements are shown in FIG. 6. A powder X-ray diffraction pattern of 2-[4-[2-(benzimidazol-2-ylthio)ethyl]piperazin-1-yl]-N-[2,4-bis(methylthio)-6-methyl-3-pyridyl]acetamide monosulfate 4-water adduct is illustrated in FIG. 7, and the results of its TG-DSC measurements are shown in FIG. 8. A powder X-ray diffraction pattern of 2-[4-[2-(benzimidazol-2-ylthio)ethyl]piperazin-1-yl]-N-[2,4-bis(methylthio)-6-methyl-3-pyridyl]acetamide monosulfate is illustrated in FIG. 9, and the results of its TG-DSC measurements are shown in FIG. 10. A powder X-ray diffraction pattern of 2-[4-[2-(benzimidazol-2-ylthio)ethyl]piperazin-1-yl]-N-[2,4-bis(methylthio)-6-methyl-3-pyridyl]acetamide dimaleate is illustrated in FIG. 11, and the results of its TG-DSC measurements are shown in FIG. 12.

[3] = Hygroscopicity (weight change on storage at 25° C. and 83% relative humidity); format: physicochemical; details: weight change after 4 days at 25° C. and 83% relative humidity
Protocol: (§2) A weight change of each acid addition salt was measured after storing it for 4 days under conditions of 25° C. and 83% relative humidity. • TG: Thermogravimetric Analysis • DSC: Differential Scanning Calorimetry

[4] = Thermal stability (HPLC purity after storage relative to before storage); format: physicochemical
Protocol: (Note) Thermal Stability:
The purity of each acid addition salt of the polyacidic basic compound stored at 80° C. for 10 days was determined by HPLC measurement relative to its purity before the storage with the proviso that the disulfate 1.5-water adduct and the dimaleate were stored at 60° C. for 7 days before their storage at 80° C. for 10 days.

[5] = TG (thermogravimetric analysis); format: physicochemical; details: weight change on heating
Text: as §1, §2

[6] = stored at 60° C. for 7 days before storage at 80° C. for 10 days
[7] = listed as 2-[4-[2-(benzimidazol-2-ylthio)ethyl]piperazin-1-yl]-N-[2,4-bis(methylthio)-6-me
[8] = listed as tetrahydrochloride 2-water adduct

Row | Structure (SMILES) | pH of 1% aq. Solution (pH of aqueous solution) | Powder X-ray [2] | Hygroscopicity [3] | Solubility [1] [mg/mL] | TG [5] | Thermal stability ([4]; stored at 80° C. for 10 days) [%] | further results
1 | Cc1cc(OCC(F)(F)F)c(NC(=O)CN2CCN(CCSc3nc4cc(F)c(F)cc4[nH]3)CC2)c(OCC(F)(F)F)n1.Cl |  |  |  |  |  |  | melting point: 186 to 187 °C
2 | CSc1cc(C)nc(SC)c1NC(=O)CN1CCN(CCSc2nc3ccccc3[nH]2)CC1 [2-[4-[2-(benzimidazol-2-ylthio)ethyl]piperazin-1-yl]-N-[2,4-bis(methylthio)-6-methyl-3-pyridyl]acetamide] |  |  |  |  |  |  | oral absorption (Oral absorption): little well; water solubility [1]: too low
3 | CSc1cc(C)nc(SC)c1NC(=O)CN1CCN(CCSc2nc3ccccc3[nH]2)CC1.O=C(O)/C=C\C(=O)O.O=C(O)/C=C\C(=O)O [Dimaleate, 2-[4-[2-(benzimidazol-2-ylthio)ethyl]piperazin-1-yl]-N-[2,4-bis(methylthio)-6-methyl-3-pyridyl]acetamide dimaleate] | 2.62 | Low | 2% |  |  |  | Thermal stability [4, 6]: 93.1%; Solubility (physchem): 15 mg/mL
4 | CSc1cc(C)nc(SC)c1NC(=O)CN1CCN(CCSc2nc3ccccc3[nH]2)CC1.CSc1cc(C)nc(SC)c1NC(=O)CN1CCN(CCSc2nc3ccccc3[nH]2)CC1.O.O.O.O=S(=O)(O)O.O=S(=O)(O)O.O=S(=O)(O)O.O=S(=O)(O)O [Disulfate 1.5-water adduct, 2-[4-[2-(benzimidazol-2-ylthio)ethyl]piperazin-1-yl]-N-[2,4-bis(methylthio)-6-methyl-3-pyridyl]acetamide disulfate 1.5-water adduct] | 2.00 | Low | 10% | >1000 | No change until |  | Thermal stability [4, 6]: 99.6%
5 | CSc1cc(C)nc(SC)c1NC(=O)CN1CCN(CCSc2nc3ccccc3[nH]2)CC1.Cl.O [Monohydrochloride 0.9-water adduct, 2-[4-[2-(benzimidazol-2-ylthio)ethyl]piperazin-1-yl]-N-[2,4-bis(methylthio)-6-methyl-3-pyridyl]acetamide monohydrochloride 0.9-water adduct] |  |  | None | 0.5 | No change until | 99.2 | pH of aq. Solution (pH of aqueous solution; 0.05% aq. solution): 5.2 (0.05%); Powder X-ray [2, 7]: high degree of crystallinity; Hygroscopicity [3, 7]: no hygroscopicity; TG [5, 7]: without any substantial weight change; Thermal stability ([4]; stored at 80° C. for 10 days, listed as 2-[4-[2-(benzimidazol-2-ylthio)ethyl]piperazin-1-yl]-N-[2,4-bis(methylthio)-6-me): excellent in thermal stability
6 | CSc1cc(C)nc(SC)c1NC(=O)CN1CCN(CCSc2nc3ccccc3[nH]2)CC1.O.O.O.O.O=S(=O)(O)O [Monosulfate 4-water adduct, 2-[4-[2-(benzimidazol-2-ylthio)ethyl]piperazin-1-yl]-N-[2,4-bis(methylthio)-6-methyl-3-pyridyl]acetamide monosulfate 4-water adduct] |  |  | None | 5 | Decreased 10% | 99.4 | pH of aq. Solution (pH of aqueous solution; 0.5% aq. solution): 3.2 (0.5%)
7 | CSc1cc(C)nc(SC)c1NC(=O)CN1CCN(CCSc2nc3ccccc3[nH]2)CC1.O=S(=O)(O)O [Monosulfate, 2-[4-[2-(benzimidazol-2-ylthio)ethyl]piperazin-1-yl]-N-[2,4-bis(methylthio)-6-methyl-3-pyridyl]acetamide monosulfate] |  | Low | 15% | 200 | No change until |  | pH of aq. Solution (pH of aqueous solution; 0.5% aq. solution): 3.2 (0.5%)
8 | CSc1cc(C)nc(SC)c1NC(=O)CN1CCN(CCSc2nc3ccccc3[nH]2)CC1.Cl.Cl.Cl.Cl.O.O [Tetrahydrochloride 2-water adduct, 2-[4-[2-(benzimidazol-2-ylthio)ethyl]piperazin-1-yl]-N-[2,4-bis(methylthio)-6-methyl-3-pyridyl]acetamide tetrahydrochloride 2-water adduct] | 1.97 | Low | 10% | >1000 | Gradual removal | 98.5 | oral absorption (Oral absorption): substantially improved; water solubility [1]: substantially improved; Powder X-ray [2, 8]: low degree of crystallinity; Hygroscopicity [3, 8]: high hygroscopicity
